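How tested: cells in 96-well plates exposed to compound for 48 hours at five concentrations. Here, GI50 denotes the concentration required for 50% inhibition of growth. TGI: total growth inhibition.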

The values that follow come from PubChem BioAssay (NCI).

Test systems include MOLT-4 leukemia; HOP-62 NSCLC; LOX IMVI melanoma; OVCAR-8 ovarian; A498 renal; PC-3 prostate; SK-MEL-28 melanoma; K-562 leukemia; NCI/ADR-RES ovarian; TK-10 renal.
Holding throughout (assay): NCI-60 cell line screen, 48 h

On to `CN(C)CCNc1ccc(CO)c2sc3ccc(O)cc3c(=O)c12`, for which the TGI was > 21.7 µM with MOLT-4 leukemia; 4.23 µM with HOP-62 NSCLC; 6.75 µM in the experiment with LOX IMVI melanoma; 8.89 µM with OVCAR-8 ovarian; 20.4 µM with A498 renal; 5.92 µM in the experiment on PC-3 prostate. Further, the TGI was 19.1 µM in the experiment with SK-MEL-28 melanoma, > 20.9 µM with K-562 leukemia, 17.2 µM in the experiment on NCI/ADR-RES ovarian and 32.1 µM in the experiment on TK-10 renal.
On to `O=C(Nc1cc(C(F)(F)F)ccc1Cl)c1ccc(NC2=C(Cl)C(=O)N(Cc3ccccc3)C2=O)cc1`, for which the GI50 was 3.53 µM in the experiment with MOLT-4 leukemia; > 100 µM with HOP-62 NSCLC; 4.11 µM with LOX IMVI melanoma; 14.6 µM with OVCAR-8 ovarian; 69.9 µM in the experiment on A498 renal; 14.8 µM with PC-3 prostate. Also, the GI50 was 23.9 µM in the experiment with SK-MEL-28 melanoma, 3.67 µM in the experiment on K-562 leukemia, 62.7 µM in the experiment with NCI/ADR-RES ovarian and 24.7 µM with TK-10 renal. Further, the TGI is 77.7 µM with MOLT-4 leukemia; > 100 µM in the experiment with HOP-62 NSCLC; > 100 µM in the experiment with LOX IMVI melanoma; 41.3 µM with OVCAR-8 ovarian; > 100 µM in the experiment on A498 renal; 37.8 µM in the experiment with PC-3 prostate. Further, the TGI in the experiment with SK-MEL-28 melanoma was 63.5 µM; with K-562 leukemia it was 19.6 µM; with NCI/ADR-RES ovarian, > 100 µM; in the experiment with TK-10 renal, 62.3 µM.
As to `CCN(CC)CCCNc1ccc2nc(C)n3c4ccc(O)cc4c(=O)c1c23`, the TGI in the experiment with MOLT-4 leukemia was 17 µM; with HOP-62 NSCLC it was 19.1 µM; with LOX IMVI melanoma it was 3.71 µM; in the experiment with OVCAR-8 ovarian it was 19.6 µM; in the experiment on A498 renal it was 24.5 µM; in the experiment on PC-3 prostate, 12.6 µM. The TGI in the experiment with SK-MEL-28 melanoma amounted to 26.6 µM; with K-562 leukemia, 37.2 µM; in the experiment with NCI/ADR-RES ovarian it was 29.6 µM; in the experiment on TK-10 renal, 16.4 µM.
`CC[n+]1oc(C(=O)c2ccc(Cl)cc2)c(-c2ccccc2)c1-c1ccccc1.[Cl][Fe]([Cl])([Cl])[Cl]`: the GI50 is 47.2 µM with MOLT-4 leukemia; 29.7 µM in the experiment on HOP-62 NSCLC; 1.82 µM in the experiment on LOX IMVI melanoma; 45.5 µM in the experiment with OVCAR-8 ovarian; 22.2 µM with A498 renal; 31.4 µM with PC-3 prostate. Moreover, the GI50 in the experiment on SK-MEL-28 melanoma was 38 µM; with K-562 leukemia, > 100 µM; in the experiment with NCI/ADR-RES ovarian, > 100 µM; with TK-10 renal it was 33.4 µM. For the same molecule, the TGI was > 100 µM in the experiment with MOLT-4 leukemia; > 100 µM in the experiment on HOP-62 NSCLC; > 100 µM with LOX IMVI melanoma; > 100 µM with OVCAR-8 ovarian; 75.1 µM in the experiment on A498 renal; > 100 µM in the experiment on PC-3 prostate. For the same molecule, the TGI in the experiment on SK-MEL-28 melanoma, with K-562 leukemia, with NCI/ADR-RES ovarian and in the experiment with TK-10 renal was > 100 µM throughout.
With `[C](#Cc1ccccc1)[Hg][C]#Cc1ccccc1`, the GI50 was 34.3 µM in the experiment with MOLT-4 leukemia; > 100 µM in the experiment on HOP-62 NSCLC; 25.4 µM with LOX IMVI melanoma; 26.6 µM with OVCAR-8 ovarian; > 100 µM with A498 renal; 30.6 µM with PC-3 prostate. Moreover, the GI50 with SK-MEL-28 melanoma is 14.7 µM; in the experiment on K-562 leukemia, 13.2 µM; in the experiment with NCI/ADR-RES ovarian, > 100 µM; with TK-10 renal, 23.8 µM. Besides, the TGI in the experiment on MOLT-4 leukemia was > 100 µM; with HOP-62 NSCLC, > 100 µM; with LOX IMVI melanoma, 63.7 µM; in the experiment with OVCAR-8 ovarian, 60.9 µM; in the experiment on A498 renal it was > 100 µM; with PC-3 prostate, 87.5 µM. Besides, the TGI in the experiment on SK-MEL-28 melanoma was 36.2 µM; with K-562 leukemia it was > 100 µM; with NCI/ADR-RES ovarian it was > 100 µM; in the experiment with TK-10 renal, 50.7 µM.
Take `Cc1[nH]nc(C(F)(F)F)c1N=NN(C)C`: the TGI in the experiment on MOLT-4 leukemia was 5.02 µM; with HOP-62 NSCLC, 27 µM; with LOX IMVI melanoma, > 100 µM; in the experiment with OVCAR-8 ovarian it was 24.6 µM; in the experiment on A498 renal, > 100 µM; in the experiment on PC-3 prostate, 25.1 µM. For the same molecule, the TGI in the experiment with SK-MEL-28 melanoma is 33 µM; in the experiment on K-562 leukemia, 11.9 µM; in the experiment on NCI/ADR-RES ovarian it was 23 µM; in the experiment with TK-10 renal it was 22.9 µM.
For `COc1cc2c(c(OC)c1OC)-c1ncc3c(OC)c(OC)c(OC)cc3c1C2`, the GI50 is 28.5 µM in the experiment on HOP-62 NSCLC; 16.2 µM with LOX IMVI melanoma; 18.9 µM with OVCAR-8 ovarian; 33.7 µM in the experiment with PC-3 prostate; 34.9 µM in the experiment on SK-MEL-28 melanoma; 19.2 µM in the experiment with K-562 leukemia. Besides, the figures for the GI50 in the experiment on NCI/ADR-RES ovarian and in the experiment with TK-10 renal were 15.6 µM and 22.5 µM, respectively. The TGI in the experiment with HOP-62 NSCLC is 86 µM; with LOX IMVI melanoma it was 32.3 µM; with OVCAR-8 ovarian, 58.2 µM; in the experiment with PC-3 prostate it was > 100 µM; in the experiment with SK-MEL-28 melanoma, > 100 µM; in the experiment with K-562 leukemia, 50.3 µM. For the same molecule, the TGI worked out at 38 µM with NCI/ADR-RES ovarian and 63.5 µM in the experiment with TK-10 renal.
With `O=C(/C=C/C12c3ccccc3C(c3ccccc31)C1C(=O)NC(=O)C12)c1ccc(Cl)cc1Cl` (configuration not stated), the GI50 with MOLT-4 leukemia was 1.77 µM; in the experiment with HOP-62 NSCLC, 2.06 µM; with LOX IMVI melanoma it was 1.88 µM; in the experiment with OVCAR-8 ovarian, 1.88 µM; in the experiment with A498 renal, 1.82 µM; in the experiment with PC-3 prostate, 1.55 µM. Also, the GI50 was 1.78 µM with SK-MEL-28 melanoma, 2.57 µM with K-562 leukemia and 1.9 µM in the experiment on TK-10 renal. The TGI in the experiment with MOLT-4 leukemia was found to be 5.58 µM; in the experiment on HOP-62 NSCLC it was 4.71 µM; in the experiment with LOX IMVI melanoma, 3.57 µM; in the experiment on OVCAR-8 ovarian it was 3.98 µM; in the experiment on A498 renal, 3.3 µM; in the experiment with PC-3 prostate, 3.08 µM. The TGI in the experiment on SK-MEL-28 melanoma stood at 3.27 µM; in the experiment with K-562 leukemia it was 10.9 µM; with TK-10 renal it was 3.5 µM.
For `COc1ccc2cc(/C=C/C(=O)c3ccc(Cl)cc3Cl)ccc2c1`, the GI50 with MOLT-4 leukemia was 11.3 µM; with HOP-62 NSCLC it was 39.3 µM; in the experiment on LOX IMVI melanoma, 24.1 µM; with OVCAR-8 ovarian, 26.6 µM; in the experiment with A498 renal, 28.8 µM; with PC-3 prostate, 44.7 µM. The figures for the GI50 with K-562 leukemia, in the experiment with NCI/ADR-RES ovarian and with TK-10 renal were 20.5 µM, 31 µM and 77.9 µM, respectively. Besides, the TGI was 35.5 µM in the experiment on MOLT-4 leukemia; > 100 µM in the experiment on HOP-62 NSCLC; 60.4 µM in the experiment with LOX IMVI melanoma; 75.4 µM in the experiment on OVCAR-8 ovarian; 58.9 µM in the experiment on A498 renal; > 100 µM with PC-3 prostate. In addition, the TGI is 68.8 µM with K-562 leukemia, 96.5 µM with NCI/ADR-RES ovarian and > 100 µM with TK-10 renal.
